# Data from patent US20240360137A1 (Novartis AG, priority 2023, published 2024).
# Legend:
# [1] = system: RB phosphorylation (Ser 807/811) in OVCAR3 xenograft tumors; experiment: In vivo pharmacodynamic assessment in Cyclin E amplified OVCAR3 xenograft model (RB phosphorylation by MSD); set-up: species or system NSG mice; conditions: Mus musculus, 3 days, 1 hour after the last dose; for inhibition at 30 mg/kg: OVCAR-3, 30 mg/kg twice daily (BID) oral
# Text: Cyclin-dependent kinase 2 (CDK2) is a member of the protein kinase family. It plays an important role in regulating various events of the eukaryotic cell division cycle. CDK2 is involved in the inactivation of the retinoblastoma protein (RB) by phosphorylation which then allows for the G1 to S phase transition of the cell cycle. Overexpression of cyclin E, the obligate binding partner of CDK2, can cause abnormal regulation of the cell cycle, which is directly associated with hyperproliferation of cancer cells. Therefore, CDK2 is regarded as a potentially impactful therapeutic target for cancer treatment. The purpose of these studies was to evaluate the PK/PD relationship of CDK2 inhibitors in Cyclin E amplified cancer cell lines in vivo in immunodeficient mice. Plasma and tumor tissues were collected for PK analysis and PD assays (read out of RB phosphorylation inhibition) after 3 days of dosing of the CDK2 inhibitor.
# (§1) The Cyclin E amplified ovarian cancer cell line OVCAR3 was tested to be free of Mycoplasma and murine viruses using the IDEXX Impact 8 panel. Cells were cultured in RPMI 1640 media supplemented with 20% FBS for fewer than 5 passages after initial thawing and prior to cell implantation into immunodeficient mice. Cells were harvested and resuspended in sterile PBS containing 50% Matrigel. Ten million viable cells were injected at a volume of 0.2 ml per mouse into the flank of immunocompromised NSG mice (1 implant per animal). When tumors reached a mean volume of 200-300 mm^3, mice were randomized and treatments were initiated. Compounds were formulated in 10% HPBCD (hydroxypropyl beta cyclodextrin) and administered orally, twice a day, in a volume of 10 ml/kg. The dosing volume was adjusted based on individual mouse body weight on the day of dosing. Pharmacodynamic markers were evaluated on day 3.
# For terminal PD biomarker analysis, mice were euthanized following 3 days of treatment (1 hour post 5th dose). […] RB phosphorylation levels of the resulting tumor protein lysates were then determined by MSD. […] Values were calculated and normalized to the untreated controls. […]
# [2] = PK analysis of plasma in OVCAR3 xenograft study; assay type: in vivo, NSG mice; conditions: 60 mg/kg BID oral, compared to Compound 1 and Compound 2 at 30 mg/kg BID
# Protocol: as §1
# For determination of compound plasma concentrations, serial blood collections were performed at designated timepoints after dosing. Blood was collected in EDTA-lined tubes and placed on wet ice. Within 30 minutes of collection, blood was centrifuged, and the plasma supernatants were aliquoted and stored at −20 C until analyzed. […] CDK2 inhibitor concentrations were measured by LC-MS/MS analysis on API 4500, API 5500+, or Sciex 7500 instruments. […]
# [3] = target: CDK2/CyclinE1 (Homo sapiens, UniProt P24941); experiment: CDKi biochemical assay (TR-FRET, phosphorylation of S780 on RB1 peptide); conditions: CDK2/CyclinE1 100 pM, 1 mM ATP, 60 min at 25° C.
# Procedure, shortened: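 CDK2/CyclinE1 (Avi-tag, 100 pM; CDK2 E. coli-expressed) phosphorylated His-MBP-RB1[773-924] (200 nM) at S780 with 1 mM ATP in HEPES pH 7.5/MgCl2/DTT, 60 min at 25° C. After EDTA quench, TR-FRET detection ran 3 h (Eu anti-p-RB S780, SA-APC). Apparent IC50 came from percent activity versus log concentration.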
# [4] = target: CDK1/CyclinB1 (Homo sapiens, UniProt P06493); experiment: as above; conditions: CDK1/CyclinB1 10 pM, 1 mM ATP, 60 min at 25° C.
# Procedure, shortened: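 CDK1/CyclinB1 (10 pM, Avi-tagged, insect-cell expressed) phosphorylated S780 of His-MBP-RB1[773-924] (200 nM) with 1 mM ATP in HEPES pH 7.5, 10 mM MgCl2, 1 mM DTT, 60 min at 25 °C. After EDTA quench, TR-FRET detection (Eu anti-pRB S780, SA-APC) for 3 h; apparent IC50 from percent activity versus log concentration.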
# [5] = target: CDK4/cyclinD1 (Homo sapiens, UniProt P11802); experiment: as above; conditions: CDK4/cyclinD1 20 pM, 1 mM ATP, 60 min at 25° C.
# Procedure, shortened: (§2)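 Avi-tagged, biotinylated CDK4/cyclinD1 (20 pM) or CDK6/cyclinD3 (10 pM) phosphorylates 200 nM His-MBP-RB1[773-924] at S780 with 1 mM ATP in HEPES pH 7.5/MgCl2, 60 min, 25° C. After EDTA quench, Eu anti-pRB(S780)/SA-APC TR-FRET is read after 3 h. Apparent IC50 comes from % activity versus log concentration.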
# [6] = target: CDK6/cyclinD3 (Homo sapiens, UniProt Q00534); experiment: as above; conditions: CDK6/cyclinD3 10 pM, 1 mM ATP, 60 min at 25° C.
# Procedure, shortened: as §2
SMILES,"inhibition at 60 mg/kg ([1]; OVCAR-3, 60 mg/kg twice daily (BID) oral) [%]",exposure [2],inhibition at 30 mg/kg [1] [%],IC50 [3] [µM],IC50 [4] [µM],IC50 [5] [µM],IC50 [6] [µM]
"CS(=O)(=O)N1CC[C@H](Nc2ncc3c(n2)N([C@@H]2CCC[C@@H](O)C2)C(=O)C32CC2)[C@H](F)C1 [Compound 3, reference compound]",~50,lower exposure,–,–,–,–,–
CCOc1n[nH]cc1Nc1ncc2c(n1)N([C@@H]1CCC[C@@H](O)C1)C(=O)C21CC1 [Compound 2],–,–,~80,–,–,–,–
COc1n[nH]cc1Nc1ncc2c(n1)N([C@@H]1CCC[C@@H](O)C1)C(=O)C21CC1 [Compound 1],–,–,~80,–,–,–,–
"Cn1cc(Oc2n[nH]cc2Nc2ncc3c(n2)N([C@@H]2CCC[C@@H](O)C2)C(=O)C32CC2)cn1 [Example 35, 7′-((1R,3R)-3-hydroxycyclohexyl)-2′-((3-((1-methyl-1H-pyrazol-4-yl)oxy)-1H-pyrazol-4-yl)amino)spiro[cyclopropane-1,5′-pyrrolo[2,3-d]pyrimidin]-6′(7′H)-one]",–,–,–,0.054,3.16,≥ 10,≥ 10
"O=C1N([C@@H]2CCC[C@@H](O)C2)c2nc(Nc3c[nH]nc3OC3CCOCC3)ncc2C12CC2 [Example 74, 7′-((1R,3R)-3-hydroxycyclohexyl)-2′-((3-((tetrahydro-2H-pyran-4-yl)oxy)-1H-pyrazol-4-yl)amino)spiro[cyclopropane-1,5′-pyrrolo[2,3-d]pyrimidin]-6′(7′H)-one]",–,–,–,0.255,≥ 10,≥ 10,≥ 10
"O=C1N([C@@H]2CCC[C@@H](O)C2)c2nc(Nc3c[nH]nc3O[C@@H]3CCOC3)ncc2C12CC2 [Example 63, 7′-((1R,3R)-3-hydroxycyclohexyl)-2′-((3-(((R)-tetrahydrofuran-3-yl)oxy)-1H-pyrazol-4-yl)amino)spiro[cyclopropane-1,5′-pyrrolo[2,3-d]pyrimidin]-6′(7′H)-one]",–,–,–,0.043,3.69,≥ 10,≥ 10
"O=C1N([C@@H]2CCC[C@@H](O)C2)c2nc(Nc3c[nH]nc3OCC3CC4(COC4)C3)ncc2C12CC2 [Example 54, 2′-((3-((2-oxaspiro[3.3]heptan-6-yl)methoxy)-1H-pyrazol-4-yl)amino)-7′-((1R,3R)-3-hydroxycyclohexyl)spiro[cyclopropane-1,5′-pyrrolo[2,3-d]pyrimidin]-6′(7′H)-one]",–,–,–,0.134,≥ 10,≥ 10,≥ 10
"O=C1N([C@@H]2CCC[C@@H](O)C2)c2nc(Nc3c[nH]nc3OCC(F)F)ncc2C12CC2 [Example 41, 2′-((3-(2,2-difluoroethoxy)-1H-pyrazol-4-yl)amino)-7′-((1R,3R)-3-hydroxycyclohexyl)spiro[cyclopropane-1,5′-pyrrolo[2,3-d]pyrimidin]-6′(7′H)-one]",–,–,–,0.005,0.73,2.68,5.09
O=C1N([C@@H]2CCC[C@@H](O)C2)c2nc(Nc3c[nH]nc3OC3CC3)ncc2C12CC2 [Example 55],–,–,–,0.011,1.43,8.5,≥ 10
"O=C1N([C@@H]2CCC[C@@H](O)C2)c2nc(Nc3c[nH]nc3OCCO)ncc2C12CC2 [Example 42, 7′-((1R,3R)-3-hydroxycyclohexyl)-2′-((3-(2-hydroxyethoxy)-1H-pyrazol-4-yl)amino)spiro[cyclopropane-1,5′-pyrrolo[2,3-d]pyrimidin]-6′(7′H)-one]",–,–,–,0.024,3.74,3.64,3.01
"O=C1N([C@@H]2CCC[C@@H](O)C2)c2nc(Nc3c[nH]nc3O[C@@H]3CC3(F)F)ncc2C12CC2 [Example 70, 2′-((3-((R)-2,2-difluorocyclopropoxy)-1H-pyrazol-4-yl)amino)-7′-((1R,3R)-3-hydroxycyclohexyl)spiro[cyclopropane-1,5′-pyrrolo[2,3-d]pyrimidin]-6′(7′H)-one]",–,–,–,0.006,0.82,7.69,≥ 10
